Measurements from ChEMBL document CHEMBL1201862, “PubChem BioAssay data set” (2004).
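Following 48 hours of exposure in 96-well plates, responses at five concentrations were used to interpolate endpoints linearly. GI50 = concentration required for 50% inhibition of growth.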 Activity calls are given as the source filed them. No stated cut-off is given here; in the data, active = GI50 up to about 1.1 µM and inactive = higher.

How the values were obtained:
Assay in all cases: growth of human tumour cells (NCI), 48 h
[1] = test system: K562
[2] = test system: HL-60
[3] = test system: HCC 2998
[4] = test system: MOLT-4
[5] = test system: SNB-75
[6] = test system: OVCAR-5
[7] = test system: SF-295
[8] = test system: OVCAR-8
[9] = test system: RPMI-8226
[10] = test system: NCI-H522
[11] = test system: MDA-MB-435
[12] = test system: UACC-257
[13] = test system: SW-620
[14] = test system: ACHN
[15] = test system: Hs-578T
[16] = test system: RXF 393
[17] = test system: SNB-19
[18] = test system: EKVX
[19] = test system: MDA-MB-231
[20] = test system: T47D
[21] = test system: CAKI-1
[22] = test system: HCT-15
[23] = test system: LOX IMVI
[24] = test system: SF-539
[25] = test system: MCF7
[26] = test system: PC-3
[27] = test system: SK-MEL-2
[28] = test system: BT-549
[29] = test system: SK-MEL-5
[30] = test system: NCI-H460
[31] = test system: DU-145
[32] = test system: NCI-H23
[33] = test system: HCT-116
[34] = test system: A498
[35] = test system: UO-31
[36] = test system: CCRF-CEM
[37] = test system: SF-268
[38] = test system: A549
[39] = test system: NCI/ADR-RES
[40] = test system: 786-0
[41] = test system: MDA-N
[42] = test system: COLO 205
[43] = test system: U-251
[44] = test system: IGROV-1
[45] = test system: HOP-62
[46] = test system: TK-10
[47] = test system: SR
[48] = test system: Malme-3M
[49] = test system: NCI-H226
[50] = test system: SK-OV-3
[51] = test system: HOP-92
[52] = test system: OVCAR-3
[53] = test system: HT-29
[54] = test system: OVCAR-4
[55] = test system: SN12C
[56] = test system: M14
[57] = test system: SK-MEL-28
[58] = test system: UACC-62
[59] = test system: KM12

Cc1nc(O)nc(N/N=C/c2ccc(Cl)c(Cl)c2)c1C(=O)Nc1ccc(Cl)c(Cl)c1
GI50 [1]: 11.5 µM (inactive)
GI50 [2]: 45.8 µM (inactive)
GI50 [3]: > 51.8 µM (inactive)
GI50 [4]: 38.5 µM (inactive)
GI50 [5]: 12.3 µM (inactive)
GI50 [6]: 26.5 µM (inactive)
GI50 [7]: 10.6 µM (inactive)
GI50 [8]: 4.27 µM (inactive)
GI50 [9]: 41.3 µM (inactive)
GI50 [10]: 17.1 µM (inactive)
GI50 [11]: 11.1 µM (inactive)
GI50 [12]: > 24.6 µM (inactive)
GI50 [13]: 12.9 µM (inactive)
GI50 [14]: > 38.6 µM (inactive)
GI50 [15]: 10.5 µM (inactive)
GI50 [16]: 15.2 µM (inactive)
GI50 [17]: 9.59 µM (inactive)
GI50 [18]: 30 µM (inactive)
GI50 [19]: 2.44 µM (inactive)
GI50 [20]: 24.7 µM (inactive)
GI50 [21]: 17.2 µM (inactive)
GI50 [22]: 11.7 µM
GI50 [23]: 15.1 µM (inactive)
GI50 [24]: 15.7 µM (inactive)
GI50 [25]: 18.5 µM (inactive)
GI50 [26]: 12.7 µM (inactive)
GI50 [27]: 17 µM (inactive)
GI50 [28]: 19.5 µM (inactive)
GI50 [29]: 9.59 µM (inactive)
GI50 [30]: 18.4 µM (inactive)
GI50 [31]: 12.6 µM (inactive)
GI50 [32]: 13.1 µM (inactive)
GI50 [33]: 6.75 µM (inactive)
GI50 [34]: 3.12 µM (inactive)
GI50 [35]: > 42.1 µM (inactive)
GI50 [36]: 8.65 µM (inactive)
GI50 [37]: 10.5 µM (inactive)
GI50 [38]: 14 µM (inactive)
GI50 [39]: 16.3 µM (inactive)
GI50 [40]: 10.3 µM (inactive)
GI50 [41]: 15.7 µM (inactive)
GI50 [42]: 13.1 µM (inactive)
GI50 [43]: 6.81 µM (inactive)
GI50 [44]: 13.8 µM (inactive)
GI50 [45]: 10.8 µM (inactive)
GI50 [46]: 11.5 µM (inactive)
GI50 [47]: 36.3 µM (inactive)
GI50 [48]: 11.6 µM (inactive)
GI50 [49]: 28.4 µM (inactive)
GI50 [50]: 14 µM (inactive)
GI50 [51]: 17.9 µM (inactive)
GI50 [52]: 9.62 µM (inactive)
GI50 [53]: 14.9 µM (inactive)
GI50 [54]: 3.62 µM (inactive)
GI50 [55]: 18.1 µM (inactive)
GI50 [56]: 5.22 µM (inactive)
GI50 [57]: 8.97 µM (inactive)
GI50 [58]: 17.6 µM (inactive)
GI50 [59]: 6.49 µM (inactive)
